Patent US20150105252A1, “SUBSTITUTED PYRAZOLES AS HERBICIDES” (E I DU PONT DE NEMOURS AND COMPANY, priority 2013, published 2015)

Legend:
wheat, winter = assay: Test D preemergence; type: in vivo, Triticum aestivum; conditions: for Plant response rating, Wheat, Winter: Preemergence, scale 0 to 100
Excerpt: (§1) Seeds of plant species selected from bluegrass (annual bluegrass, Poa annua), blackgrass (Alopecurus myosuroides), canarygrass (littleseed canarygrass, Phalaris minor), chickweed (common chickweed, Stellaria media), galium (catchweed bedstraw, Galium aparine), bromegrass, downy (downy bromegrass, Bromus tectorum), field poppy (Papaver rhoeas), field violet (Viola arvensis), foxtail, green (green foxtail, Setaria viridis), deadnettle (henbit deadnettle, Lamium amplexicaule), ryegrass, Italian (Italian ryegrass, Lolium multiflorum), kochia (Kochia scoparia), lambsquarters (Chenopodium album), oilseed rape (Brassica napus), pigweed (redroot pigweed, Amaranthus retroflexus), chamomile (scentless chamomile, Matricaria inodora), speedwell (bird's-eye speedwell, Veronica persica), barley, spring (spring barley, Hordeum vulgare), wheat, spring (spring wheat, Triticum aestivum), buckwheat, wild (wild buckwheat, Polygonum convolvulus), mustard, wild (wild mustard, Sinapis arvensis), oat, wild (wild oat, Avena fatua), radish, wild (wild radish, Raphanus raphanistrum), windgrass (Apera spica-venti), Russian thistle (Salsola kali), barley, winter (winter barley, Hordeum vulgare), and wheat, winter (winter wheat, Triticum aestivum) were planted into a silt loam soil and treated preemergence with test chemicals formulated in a non-phytotoxic solvent mixture which included a surfactant.
(§2) At the same time, these species were planted in pots containing Redi-Earth® planting medium (Scotts Company, 14111 Scottslawn Road, Marysville, Ohio 43041) comprising spaghnum peat moss, vermiculite, wetting agent and starter nutrients and treated with postemergence applications of the test chemicals formulated in the same manner. Plants ranged in height from 2 to 18 cm (1- to 4-leaf stage). Treated plants and controls were maintained in a controlled growth environment for 14 to 21 days after which time all species were compared to controls and visually evaluated. Plant response ratings, summarized in Table D, are based on a scale of 0 to 100 where 0 is no effect and 100 is complete control. A dash (-) response means no test result.

wheat, spring = assay: Test D preemergence; type: in vivo, Triticum aestivum; conditions: for Plant response rating, Wheat, Spring: Preemergence, scale 0 to 100
Excerpt: as §1, §2

barley, spring = assay: Test D preemergence; type: in vivo, Hordeum vulgare; conditions: for Plant response rating, Barley, Spring: Preemergence, scale 0 to 100
Excerpt: as §1, §2

barley, winter = assay: Test D preemergence; type: in vivo, Hordeum vulgare; conditions: for Plant response rating, Barley, Winter: Preemergence, scale 0 to 100
Excerpt: as §1, §2

lambsquarters = assay: Test D preemergence; type: in vivo, Chenopodium album; conditions: for Plant response rating, Lambsquarters: Preemergence, scale 0 to 100
Excerpt: as §1, §2

ryegrass, Italian [1] = assay: Test D postemergence; type: in vivo, Lolium multiflorum; conditions: scale 0 to 100
Excerpt: as §1, §2

canarygrass = assay: Test D preemergence; type: in vivo, Phalaris minor; conditions: for Plant response rating, Canarygrass: Preemergence, scale 0 to 100
Outline: (§3)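 Postemergence activity was tested on plants at the 1- to 4-leaf stage (2–18 cm) grown in peat-based medium, and preemergence activity on seeds in silt loam, with chemicals in a surfactant-containing non-phytotoxic solvent. Controlled-environment growth lasted 14–21 days before visual 0–100 scoring.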

chamomile = assay: Test D postemergence; type: in vivo, Matricaria inodora; conditions: scale 0 to 100
Excerpt: as §1, §2

ryegrass, Italian [2] = assay: Test D preemergence; type: in vivo, Lolium multiflorum; conditions: for Plant response rating, Ryegrass, Italian: Preemergence, scale 0 to 100
Excerpt: as §1, §2

chickweed = assay: Test D preemergence; type: in vivo, Stellaria media; conditions: for Plant response rating, Chickweed: Preemergence, scale 0 to 100
Outline: as §3

buckwheat, wild = assay: Test D preemergence; type: in vivo, Polygonum convolvulus; conditions: for Plant response rating, Buckwheat, Wild: Preemergence, scale 0 to 100
Excerpt: as §1, §2

blackgrass = assay: Test D preemergence; type: in vivo, Alopecurus myosuroides; conditions: for Plant response rating, Blackgrass: Preemergence, scale 0 to 100
Outline: as §3

oilseed rape [3] = assay: Test D postemergence; type: in vivo, Brassica napus; conditions: scale 0 to 100
Outline: as §3

windgrass = assay: Test D preemergence; type: in vivo, Apera spica-venti; conditions: for Plant response rating, Windgrass: Preemergence, scale 0 to 100
Excerpt: as §1, §2

field poppy = assay: Test D preemergence; type: in vivo, Papaver rhoeas; conditions: for Plant response rating, Field Poppy: Preemergence, scale 0 to 100
Excerpt: as §1, §2

pigweed = assay: Test D preemergence; type: in vivo, Amaranthus retroflexus; conditions: Preemergence, scale 0 to 100
Excerpt: as §1, §2

oilseed rape [4] = assay: Test D preemergence; type: in vivo, Brassica napus; conditions: for Plant response rating, Oilseed Rape: Preemergence, scale 0 to 100
Outline: as §3

galium = assay: Test D preemergence; type: in vivo, Galium aparine; conditions: for Plant response rating, Galium: Preemergence, scale 0 to 100
Excerpt: as §1, §2

oat, wild = assay: Test D postemergence; type: in vivo, Avena fatua; conditions: scale 0 to 100
Outline: as §3

[5] = 16 g ai/ha, taken as preemergence

CCc1cc(C(=O)NOC(C)C)nn1Cc1cccc(OC(F)(F)F)c1 [Compound 70]
Plant response rating (scale 0 to 100), Wheat, Winter (wheat, winter; [5]): 0 | Plant response rating, Wheat, Winter (wheat, winter; 31 g ai/ha): 0 | Plant response rating, Wheat, Winter (wheat, winter; 62 g ai/ha): 0 | Plant response rating, Wheat, Winter (wheat, winter; 125 g ai/ha): 0 | Plant response rating, Wheat, Winter (wheat, winter; 250 g ai/ha): 10 | Plant response rating (scale 0 to 100), Wheat, Spring (wheat, spring; [5]): 0 | Plant response rating, Wheat, Spring (wheat, spring; 31 g ai/ha): 0 | Plant response rating, Wheat, Spring (wheat, spring; 62 g ai/ha): 0 | Plant response rating, Wheat, Spring (wheat, spring; 125 g ai/ha): 10 | Plant response rating, Wheat, Spring (wheat, spring; 250 g ai/ha): 20 | Plant response rating (scale 0 to 100), Barley, Spring (barley, spring; 16 g ai/ha, taken as preemergence, 0 = no effect, 100 = complete control): 0 | Plant response rating, Barley, Spring (barley, spring; 31 g ai/ha): 0 | Plant response rating, Barley, Spring (barley, spring; 62 g ai/ha): 0 | Plant response rating, Barley, Spring (barley, spring; 125 g ai/ha): 0 | Plant response rating, Barley, Spring (barley, spring; 250 g ai/ha): 15 | Plant response rating (scale 0 to 100), Barley, Winter (barley, winter; [5]): 0 | Plant response rating, Barley, Winter (barley, winter; 31 g ai/ha): 0 | Plant response rating, Barley, Winter (barley, winter; 62 g ai/ha): 0 | Plant response rating, Barley, Winter (barley, winter; 125 g ai/ha): 0 | Plant response rating, Barley, Winter (barley, winter; 250 g ai/ha): 10 | Plant response rating (scale 0 to 100), Lambsquarters (lambsquarters; [5]): 0 | Plant response rating, Lambsquarters (lambsquarters; 31 g ai/ha): 0 | Plant response rating, Lambsquarters (lambsquarters; 62 g ai/ha): 0 | Plant response rating, Lambsquarters (lambsquarters; 125 g ai/ha): 100 | Plant response rating, Lambsquarters (lambsquarters; 250 g ai/ha): 100 | Plant response rating, Ryegrass, Italian (ryegrass, Italian [1]; Postemergence, 16 g ai/ha): 0 | Ryegrass, Italian plant response rating (ryegrass, Italian [1]; Postemergence, 31 g ai/ha): 0 | Ryegrass, Italian plant response rating (ryegrass, Italian [1]; Postemergence, 125 g ai/ha): 10 | Ryegrass, Italian plant response rating (ryegrass, Italian [1]; Postemergence, 250 g ai/ha): 15 | Ryegrass, Italian plant response rating (ryegrass, Italian [1]; postemergence, 62 g ai/ha): 0 | Plant response rating (scale 0 to 100), Canarygrass (canarygrass; [5]): 0 | Plant response rating, Canarygrass (canarygrass; 31 g ai/ha): 0 | Plant response rating, Canarygrass (canarygrass; 62 g ai/ha): 0 | Plant response rating, Canarygrass (canarygrass; 125 g ai/ha): 20 | Plant response rating, Canarygrass (canarygrass; 250 g ai/ha): 75 | Plant response rating, Chamomile (chamomile; Postemergence, 16 g ai/ha): 10 | Chamomile plant response rating (chamomile; Postemergence, 31 g ai/ha): 30 | Chamomile plant response rating (chamomile; Postemergence, 125 g ai/ha): 40 | Chamomile plant response rating (chamomile; Postemergence, 250 g ai/ha): 50 | Chamomile plant response rating (chamomile; postemergence, 62 g ai/ha): 30 | Plant response rating (scale 0 to 100), Ryegrass, Italian (ryegrass, Italian [2]; [5]): 0 | Plant response rating, Ryegrass, Italian (ryegrass, Italian [2]; 31 g ai/ha): 0 | Plant response rating, Ryegrass, Italian (ryegrass, Italian [2]; 62 g ai/ha): 0 | Plant response rating, Ryegrass, Italian (ryegrass, Italian [2]; 125 g ai/ha): 20 | Plant response rating, Ryegrass, Italian (ryegrass, Italian [2]; 250 g ai/ha): 75 | Plant response rating (scale 0 to 100), Chickweed (chickweed; [5]): 0 | Plant response rating, Chickweed (chickweed; 31 g ai/ha): 0 | Plant response rating, Chickweed (chickweed; 62 g ai/ha): 10 | Plant response rating, Chickweed (chickweed; 125 g ai/ha): 100 | Plant response rating, Chickweed (chickweed; 250 g ai/ha): 100 | Plant response rating (scale 0 to 100), Buckwheat, Wild (buckwheat, wild; [5]): 0 | Plant response rating, Buckwheat, Wild (buckwheat, wild; 31 g ai/ha): 0 | Plant response rating, Buckwheat, Wild (buckwheat, wild; 62 g ai/ha): 0 | Plant response rating, Buckwheat, Wild (buckwheat, wild; 125 g ai/ha): 0 | Plant response rating, Buckwheat, Wild (buckwheat, wild; 250 g ai/ha): 100 | Plant response rating (scale 0 to 100), Blackgrass (blackgrass; [5]): 0 | Plant response rating, Blackgrass (blackgrass; 31 g ai/ha): 0 | Plant response rating, Blackgrass (blackgrass; 62 g ai/ha): 5 | Plant response rating, Blackgrass (blackgrass; 125 g ai/ha): 10 | Plant response rating, Blackgrass (blackgrass; 250 g ai/ha): 30 | Plant response rating, Oilseed Rape (oilseed rape [3]; Postemergence, 16 g ai/ha): 20 | Oilseed Rape plant response rating (oilseed rape [3]; Postemergence, 31 g ai/ha): 40 | Oilseed Rape plant response rating (oilseed rape [3]; Postemergence, 125 g ai/ha): 60 | Oilseed Rape plant response rating (oilseed rape [3]; Postemergence, 250 g ai/ha): 80 | Oilseed Rape plant response rating (oilseed rape [3]; postemergence, 62 g ai/ha): 50 | Plant response rating (scale 0 to 100), Windgrass (windgrass; [5]): 0 | Plant response rating, Windgrass (windgrass; 31 g ai/ha): 0 | Plant response rating, Windgrass (windgrass; 62 g ai/ha): 0 | Plant response rating, Windgrass (windgrass; 125 g ai/ha): 0 | Plant response rating, Windgrass (windgrass; 250 g ai/ha): 0 | Plant response rating (scale 0 to 100), Field Poppy (field poppy; [5]): 20 | Plant response rating, Field Poppy (field poppy; 31 g ai/ha): 100 | Plant response rating, Field Poppy (field poppy; 62 g ai/ha): 100 | Plant response rating, Field Poppy (field poppy; 125 g ai/ha): 90 | Plant response rating, Field Poppy (field poppy; 250 g ai/ha): 100 | Plant response rating, Pigweed (pigweed; 62 g ai/ha): 0 | Plant response rating, Pigweed (pigweed; 250 g ai/ha): 75 | Plant response rating (scale 0 to 100), Oilseed Rape (oilseed rape [4]; [5]): 0 | Plant response rating, Oilseed Rape (oilseed rape [4]; 31 g ai/ha): 0 | Plant response rating, Oilseed Rape (oilseed rape [4]; 62 g ai/ha): 0 | Plant response rating, Oilseed Rape (oilseed rape [4]; 125 g ai/ha): 10 | Plant response rating, Oilseed Rape (oilseed rape [4]; 250 g ai/ha): 40 | Plant response rating (scale 0 to 100), Galium (galium; [5]): 0 | Plant response rating, Galium (galium; 31 g ai/ha): 0 | Plant response rating, Galium (galium; 62 g ai/ha): 10 | Plant response rating, Galium (galium; 250 g ai/ha): 40 | Plant response rating, Oat, Wild (oat, wild; Postemergence, 16 g ai/ha): 0 | Oat, Wild plant response rating (oat, wild; Postemergence, 31 g ai/ha): 0 | Oat, Wild plant response rating (oat, wild; Postemergence, 125 g ai/ha): 0 | Oat, Wild plant response rating (oat, wild; Postemergence, 250 g ai/ha): 10 | Oat, Wild plant response rating (oat, wild; postemergence, 62 g ai/ha): 0
